Data on 17 compounds can be found in article PMC6864762, “Angiotensin-I-Converting Enzyme Inhibitory Activity of Coumarins from Angelica decursiva” (Molecules, 2019).

Each structure is given as a SMILES string.

The target of assay [1] is T1, ACE (Oryctolagus cuniculus, UniProt P12822).
T1 sequence (P12822 34-1310): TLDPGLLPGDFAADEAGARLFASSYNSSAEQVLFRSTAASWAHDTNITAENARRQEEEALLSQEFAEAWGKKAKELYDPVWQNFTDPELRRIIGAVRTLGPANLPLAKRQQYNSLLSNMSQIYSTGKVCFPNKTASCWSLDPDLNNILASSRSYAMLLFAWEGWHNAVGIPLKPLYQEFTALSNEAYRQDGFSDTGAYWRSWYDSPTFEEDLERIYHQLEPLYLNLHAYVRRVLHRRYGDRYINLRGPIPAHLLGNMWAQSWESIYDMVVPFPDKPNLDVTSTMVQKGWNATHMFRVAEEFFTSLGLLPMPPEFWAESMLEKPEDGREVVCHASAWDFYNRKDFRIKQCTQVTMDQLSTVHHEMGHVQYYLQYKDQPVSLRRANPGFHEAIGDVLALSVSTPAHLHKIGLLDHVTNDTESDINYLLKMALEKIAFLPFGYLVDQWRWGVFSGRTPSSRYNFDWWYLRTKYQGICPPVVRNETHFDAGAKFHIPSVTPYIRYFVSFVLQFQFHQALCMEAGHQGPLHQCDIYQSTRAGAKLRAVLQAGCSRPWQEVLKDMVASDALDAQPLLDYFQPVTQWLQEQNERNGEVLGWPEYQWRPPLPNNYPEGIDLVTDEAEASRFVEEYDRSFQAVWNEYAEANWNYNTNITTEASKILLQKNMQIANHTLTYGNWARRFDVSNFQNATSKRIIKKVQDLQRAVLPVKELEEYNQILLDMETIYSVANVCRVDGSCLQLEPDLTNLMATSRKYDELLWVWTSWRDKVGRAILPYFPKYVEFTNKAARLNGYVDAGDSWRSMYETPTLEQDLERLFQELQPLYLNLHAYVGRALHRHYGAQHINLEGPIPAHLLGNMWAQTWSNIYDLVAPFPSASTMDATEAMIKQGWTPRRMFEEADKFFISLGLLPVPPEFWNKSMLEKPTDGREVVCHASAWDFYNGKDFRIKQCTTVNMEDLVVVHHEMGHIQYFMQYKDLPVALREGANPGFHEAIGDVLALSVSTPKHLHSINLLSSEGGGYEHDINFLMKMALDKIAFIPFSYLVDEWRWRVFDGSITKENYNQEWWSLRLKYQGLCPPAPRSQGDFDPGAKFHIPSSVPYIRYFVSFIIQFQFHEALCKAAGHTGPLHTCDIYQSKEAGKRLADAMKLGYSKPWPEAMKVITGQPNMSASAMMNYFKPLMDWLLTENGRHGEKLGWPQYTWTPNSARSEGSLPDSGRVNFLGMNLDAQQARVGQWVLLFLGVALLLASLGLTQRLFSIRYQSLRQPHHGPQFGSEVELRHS
Description: ACE inhibitory activity assay with FAPGG as substrate. As to conditions: for Inhibitory effect on ACE (in words): structure–activity discussion of Table 2.
Description: The ACE inhibitory activity of 18 compounds was conducted according to Hyun et al. [8] and modified to use FAPGG as the substrate. In brief, FAPGG (0.5 mM) and various concentrations of the samples were completely dissolved in 50 mM Tris–HCl buffer (pH 7.5).

The subject of assay [2] is ACE. More on the design: method as in earlier work. Particulars: ref 25 (Hyun et al.); cited from earlier work.
For assay [3], the target named is T1, ACE. Description: Enzyme kinetics of ACE inhibition (Lineweaver–Burk and secondary plots). In kind it is biochemical, rabbit. Details: ACE (1 Unit, rabbit lung); purchased Sigma Chemical Company (St Louis, MO, USA); host or cells: rabbit lung (tissue-derived). Particulars: for Type of Inhibition: Lineweaver–Burk plot and secondary plot, FAPGG 0.1–0.5 mM; for Ki: from secondary plot of slope (Km,app/Vmax,app) versus inhibitor. The procedure: All chemicals and solvents used for column chromatography were of reagent grade and purchased from commercial sources, unless otherwise stated.
To determine the inhibition mechanisms, ACE inhibition was evaluated by monitoring the effects of different concentrations of substrate […]. The reaction mixture consisted of different concentrations of FAPGG (0.1–0.5 mM), as the substrate, and ACE in 50 mM Tris–HCl buffer. Several concentrations of each sample were added to the reaction mixture. The tested concentrations of coumarins are as follows: 12 (0, 2.5, 5, and 10 µM); 13 (0, 2.5, 5, and 10 µM); 15 (0, 1.28, 2.56, and 5.12 µM). Inhibition constants (Ki) were determined by interpretation of the secondary plots from Lineweaver–Burk plot.

In the case of `CC(C)(O[C@@H]1O[C@H](CO)[C@@H](O)[C@H](O)[C@H]1O)[C@H]1Cc2cc3ccc(=O)oc3cc2O1` [Compound 1, nodakenin], the IC50 in assay [1] was found to be 112.5 ± 0.71 µM. The “ACE inhibitory activity (in words)” value in assay [2] is “promising ACE inhibitory activity”. `CC(C)(O)[C@H]1Cc2cc3ccc(=O)oc3cc2O1` [Compound 2, nodakenetin] yielded an IC50 in assay [1] of 102.3 ± 0.29 µM. On the same count and under the same terms, under `CC(C)(OC1OC(CO)C(O)C(O)C1O)C1Cc2cc3ccc(=O)oc3c(O)c2O1` (stereo not drawn) [Compound 3, isorutarine] stands 68.36 ± 0.27 µM.

On to `O=c1ccc2ccc(O)cc2o1` [Compound 4, umbelliferone], for which, in assay [2], the “ACE inhibitory activity (in words)” value is recorded as “promising ACE inhibitory activity”. Regarding `O=C(O)c1cc2ccc(=O)oc2cc1O` [Compound 5, umbelliferone 6-carboxylic acid], in assay [1], the IC50 is 156.1 ± 0.41 µM and the “Inhibitory effect on ACE (in words)” value was “moderate inhibitory effects”. Also, the “ACE inhibitory activity (in words)” value in assay [2] is reported as “promising ACE inhibitory activity”.

`O=C(O)c1ccc(O)cc1` [Compound 6, para-hydroxy benzoic acid] returned an IC50 in assay [1] of 492.4 ± 0.89 µM. Take `CC(C)c1cc2cc3ccc(=O)oc3cc2o1` [Compound 8, 2′-isopropyl psoralene]: in assay [1], 311.1 ± 0.33 µM corresponded to half-maximal inhibition (IC50) and the “Inhibitory effect on ACE (in words)” value is “weak activity”. With `C/C=C(\C)C(=O)O[C@@H]1c2c(ccc3ccc(=O)oc23)OC(C)(C)[C@@H]1OC(C)=O` [Compound 9, 3′(R)-O-acetyl-4′(S)-O-tigloylkhellactone], the IC50 in assay [1] is 89.36 ± 0.38 µM. Still for that read-out and setting: the result for `C/C=C(/C)C(=O)O[C@@H]1c2c(ccc3ccc(=O)oc23)OC(C)(C)[C@@H]1OC(C)=O` [Compound 10, cis-3′-acetyl-4′-angeloylkhellactone] reads 71.48 ± 0.47 µM; that for `CC1(C)Oc2cc3oc(=O)ccc3cc2C[C@@H]1O` [Compound 11, decursinol], 18.3 ± 0.61 µM. On to `C/C=C(/C)C(=O)O[C@H]1[C@H](O)c2cc3ccc(=O)oc3cc2OC1(C)C` [Compound 12, 4′-hydroxy Pd-C-III], for which, in assay [1], half-maximal inhibition (IC50) was put at 9.41 ± 0.69 µM. Further, in assay [3], the “Type of Inhibition” value is given as “competitive inhibition” and the Ki amounted to 1.98 µM.

Compound `CC(C)=CC(=O)O[C@H]1[C@H](O)c2cc3ccc(=O)oc3cc2OC1(C)C` [Compound 13, Pd-C-I] returned a half-inhibitory concentration (IC50) in assay [1] of 6.75 ± 0.43 µM. Moreover, in assay [3], the “Type of Inhibition” value is “competitive inhibition” and the Ki amounted to 2.35 µM. The compound `CC(C)=CC(=O)O[C@@H]1c2cc3ccc(=O)oc3cc2OC(C)(C)[C@H]1OC(=O)C=C(C)C` [Compound 14, decursidin] had an IC50 in assay [1] of 20 ± 0.79 µM. In the case of `CC1(C)Oc2cc3oc(=O)ccc3cc2[C@@H](O)[C@@H]1O` [Compound 15, (+)-trans-decursidinol], half-maximal inhibition in assay [1] (IC50) was put at 4.68 ± 0.22 µM. In assay [3], the “Type of Inhibition” value was “competitive inhibition” and the Ki is 0.59 µM.

`CC(C)=CC(=O)O[C@@H]1c2cc3ccc(=O)oc3cc2OC(C)(C)[C@H]1O` [Compound 16, Pd-C-II]: the IC50 in assay [1] was determined as 12.4 ± 0.27 µM.

As for `C/C=C(/C)C(=O)O[C@H]1[C@H](OC(C)=O)c2cc3ccc(=O)oc3cc2OC1(C)C` [Compound 17, Pd-C-III], the IC50 in assay [1] was 15.2 ± 0.39 µM.

`CO[C@@H]1c2cc3ccc(=O)oc3cc2OC(C)(C)[C@H]1OC(=O)C=C(C)C` [Compound 18, 4′-methoxy Pd-C-I] gave an IC50 in assay [1] of 16 ± 0.92 µM.
